From patent US20110158953A1, “TUMOR SUPPRESSION THROUGH PLEXIN C1” (UNIVERSITY OF ROCHESTER, priority 2008, published 2011)
Entries after “also recorded” stand apart in the source; their conditions may differ.

Columns and labels:
Plexin C1 = Plexin C1 protein expression in human melanoma cell lines treated with DNA methylation inhibitor (Western blot); format: cell-based; conditions: 5 days; for Change in Plexin C1 protein: 3 μM
Method: Results are representative of 2 separate experiments.
Promotor hypermethylation plays a major role in transcriptional silencing of tumor suppressor genes in cancer and in melanoma (Dahl and Guldberg, 2007; Gronbaek et al., 2007; Rothhammer and Bosserhoff, 2007). To determine if Plexin C1 expression is regulated by DNA hypermethylation, melanoma cells were treated for 5 days with the DNA methylation inhibitor 5-Aza-2′-Deoxycytidine (5-Aza2Dc; 3 μM). Total cell lysates were then blotted for Plexin C1. […] But, a dose of 1.0 μM was the lowest dose that stimulated Plexin C1 expression in the YURIF and WW165 cell lines (FIG. 1C).
Neonatal foreskins were obtained according to the University of Rochester Research Subjects Review Board guidelines and were the source of cultured human melanocytes. Human melanocytes were cultured in MCDB 153 supplemented with 0.5% fetal bovine serum (FBS), bovine pituitary extract (15 μg/ml), phorbol ester (10 nM), basic fibroblast growth factor (1 ng/ml), insulin (5 μg/ml) and hydrocortisone (500 ng/ml). All supplements were purchased from Sigma Co, except FBS, which was purchased from Mediatech (Manassas, Va.). The following human melanoma cell lines were purchased from the Yale University Cell Core Facility: WW165, YURIF, YUSIK, YUMAC, and were maintained in Opti-MEM+5% FBS, except WW165 which was maintained in Opti-MEM+5% FBS and IBMX 0.1 mM. The C32 and WM115 human melanoma cell lines were obtained from American Type Culture Collection (Manassas Va.) and were maintained in Eagle Minimal Essential Media (MEM)+10% FBS and 1 mM sodium pyruvate. The WM115 and WW 165 cell lines were derived from melanomas primary to the skin; the other cell lines were derived from metastatic melanoma.
For Western blotting, cells were lysed in RIPA buffer (150 mM NaCl, 1% NP-40, 0.5% DOC, 0.1% SDS, 50 mM Tris-HCl) with protease inhibitors (Boehringer Mannheim, Gmbt, Germany) and phosphatase inhibitors (Gbiosciences, St. Louis, Mo.) and protein was quantified using bovine serum albumen (BSA) as standard (Bio-Rad Laboratories, Hercules, Calif.). Visualization of the immunoreactive proteins was accomplished with an enhanced chemiluminescence reaction (Pierce Chemical, Rockford, Ill.). For analysis of cell surface Sema7A expression in melanoma cell lines by flow cytometry, cells were placed in suspension in PBS/1% BSA and stained with FITC-conjugated antibodies against Sema7A for 30 minutes at room temperature. Negative controls consisted of cells incubated with FITC-conjugated IgM. After washing in PBS, cells were re-suspended in 0.5% formalin in PBS/1% BSA and analyzed using a FACS Caliber Machine (Becton Dickenson) at the flow cytometry core facility at the University of Rochester.

Erk1/Erk2 = test: Sema7A-stimulated MAP kinase activation (P-Erk1/Erk2) in human melanocytes (Western blot); format: cell-based; conditions: PD 98059 10 μM one hour prior to Sema7A 25 ng/ml for 5 minutes
Method: Total cell lysates were resolved on 10% SDS-PAGE and blotted for phosphorylated Erk1/Erk2; the blot was stripped and re-blotted for total Erk1/Erk2. […] Results are representative of 2 separate experiments. The specificity of MAP kinase activation was tested in melanocytes by the inclusion of the selective p42/44 MAP kinase inhibitor PD 98059 (10 μM) in cells treated with Sema7A (25 ng/ml) for 5 minutes (FIG. 4D). Shown are cell lyates resolved on SDS-PAGE and blotted for P-Erk1/Erk2. The blot was stripped and reblotted for total Erk1/Erk2. As expected, Sema7A stimulated phosphorylation of Erk1/Erk2 within 5 minutes of treatment. […] Results are representative of 2 separate experiments. […]
For Western blotting, cells were lysed in RIPA buffer (150 mM NaCl, 1% NP-40, 0.5% DOC, 0.1% SDS, 50 mM Tris-HCl) with protease inhibitors (Boehringer Mannheim, Gmbt, Germany) and phosphatase inhibitors (Gbiosciences, St. Louis, Mo.) and protein was quantified using bovine serum albumen (BSA) as standard (Bio-Rad Laboratories, Hercules, Calif.). […] After washing in PBS, cells were re-suspended in 0.5% formalin in PBS/1% BSA and analyzed using a FACS Caliber Machine (Becton Dickenson) at the flow cytometry core facility at the University of Rochester.

SMILES | Change in Plexin C1 protein (Plexin C1; C32 melanoma cells) | Change in Plexin C1 protein (Plexin C1; WM115 melanoma cells) | Lowest dose that stimulated Plexin C1 expression (Plexin C1; WW165 cells, dose response 0.1 μM to 3.0 μM) | Change in Plexin C1 protein (Plexin C1; WW165 melanoma cells) | Change in Plexin C1 protein (Plexin C1; WW165 melanoma cells, listed as 5-AzaDc) | Dose sufficient to increase Plexin C1 expression (Plexin C1; YUMAC cells, dose response 0.1 μM to 3.0 μM) | Change in Plexin C1 protein (Plexin C1; YUMAC melanoma cells) | Lowest dose that stimulated Plexin C1 expression (Plexin C1; YURIF cells, dose response 0.1 μM to 3.0 μM) | Change in Plexin C1 protein (Plexin C1; YURIF melanoma cells) | Change in Plexin C1 protein (Plexin C1; YURIF melanoma cells, listed as 5-AzaDc) | Change in Plexin C1 protein (Plexin C1; YUSIK melanoma cells) | Effect on Sema7A-induced Erk1/Erk2 phosphorylation (Erk1/Erk2)
Nc1ncn([C@H]2C[C@H](O)[C@@H](CO)O2)c(=O)n1 [5-Aza2Dc, 5-Aza-2′-Deoxycytidine] | no change | no change | 1.0 µM | reduction | decrease | 0.1 µM | increase | 1.0 µM | reduction | decrease | no change | –
COc1cccc(-c2cc(=O)c3ccccc3o2)c1N [PD 98059] | – | – | – | – | – | – | – | – | – | – | – | no induction; also recorded: inhibited
